This is an account of results in patent publication US10202360B2 (CELGENE QUANTICEL RESEARCH, INC., priority 2016, dated 2019).

A value given as a limit tells only on which side of the number the result lay.

CREBBP, sequence (Q92793 1081-1197): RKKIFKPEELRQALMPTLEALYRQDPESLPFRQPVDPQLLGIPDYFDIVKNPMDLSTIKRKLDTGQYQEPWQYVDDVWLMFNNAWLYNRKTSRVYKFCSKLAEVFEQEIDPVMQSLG

This assay has as its target CREBBP (Homo sapiens (Human), UniProt Q92793). The assay is described as follows: In vitro enzyme inhibition assay - CREBBP inhibition (AlphaScreen, biotinylated H4-tetraacetyl peptide). It is filed as binding. Particulars: Table 28; AlphaScreen, H4-tetraacetyl peptide. A digest of the protocol: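 Displacement of 20 nM biotinylated tetraacetyl-H4 peptide from 50 nM E. coli-expressed His-CREBBP, measured by AlphaScreen after bead equilibration for 2 h.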
Background: In Alpha technology, singlet oxygen from a donor bead excites a nearby acceptor bead.
Turning to `Cc1cc(-c2cc(NS(=O)(=O)C(C)C)nc(Oc3c(F)cccc3Cl)n2)cn(C)c1=O` [Example 142, Propane-2-sulfonic acid [2-(2-chloro-6-fluoro-phenoxy)-6-(1,5-dimethyl-6-oxo-1,6-dihydro-pyridin-3-yl)-pyrimidin-4-yl]-amide], the IC50 (in general, the concentration at which inhibition is half-maximal) is less than 500 nM.
The result for `CCCS(=O)(=O)Nc1cc(-c2ccc(=O)n(C)c2)nc(Oc2c(F)cccc2Cl)n1` [Example 143, Propane-1-sulfonic acid [2-(2-chloro-6-fluoro-phenoxy)-6-(1-methyl-6-oxo-1,6-dihydro-pyridin-3-yl)-pyrimidin-4-yl]-amdie] reads less than 500 nM.
In the case of `CC(C)S(=O)(=O)Nc1cc(-c2ccc(=O)n(C)c2)nc(Oc2c(F)cccc2Cl)n1` [Example 144, Propane-2-sulfonic acid [2-(2-chloro-6-fluoro-phenoxy)-6-(1-methyl-6-oxo-1,6-dihydro-pyridin-3-yl)-pyrimidin-4-yl]-amide], the IC50 was less than 500 nM.
On to `Cc1cccc(F)c1Oc1nc(NS(=O)(=O)CCCC(F)(F)F)cc(-c2ccc(=O)n(C)c2)n1` [Example 146, 4,4,4-Trifluoro-butane-1-sulfonic acid [2-(2-fluoro-6-methyl-phenoxy)-6-(1-methyl-6-oxo-1,6-dihydro-pyridin-3-yl)-pyrimidin-4-yl]-amide], for which the IC50 is less than 500 nM.
The result for `CCS(=O)(=O)Nc1cc(-c2cc(C)c(=O)n(C)c2)nc(OC(C)c2ccccc2)n1` (stereo not drawn) [Example 147, Ethanesulfonic acid [6-(1,5-dimethyl-6-oxo-1,6-dihydro-pyridin-3-yl)-2-(1-phenyl-ethoxy)-pyrimidin-4-yl]-amide] reads less than 500 nM.
As to `Cn1cc(-c2cc(NS(=O)(=O)CCCF)nc(Oc3c(F)cccc3Cl)n2)ccc1=O` [Example 148, N-(2-(2-chloro-6-fluorophenoxy)-6-(1-methyl-6-oxo-1,6-dihydropyridin-3 yl)pyrimidin-4-yl)-3-fluoropropane-1-sulfonamide], the IC50 is less than 500 nM.
As to `Cc1cccc(C#N)c1Oc1nc(NS(=O)(=O)CCC(F)(F)F)cc(-c2ccc(=O)n(C)c2)n1` [Example 149, N-(2-(2-cyano-6-methylphenoxy)-6-(1-methyl-6-oxo-1,6-dihydropyridin-3-yl)pyrimidin-4-yl)-3,3,3-trifluoropropane-1-sulfonamide], the IC50 is less than 500 nM.
Compound `Cc1cccc(C#N)c1Oc1nc(NS(=O)(=O)CCCC(F)(F)F)cc(-c2ccc(=O)n(C)c2)n1` [Example 150, N-(2-(2-cyano-6-methylphenoxy)-6-(1-methyl-6-oxo-1,6-dihdyropyridin-3-yl)pyrimidin-4-yl)-4,4,4-trifluorobutane-1-sulfonamide] showed an IC50 of less than 500 nM.
For `CCS(=O)(=O)Nc1cc(-c2cc(C)c(=O)n(C)c2)nc(OCC(F)(F)F)n1` [Example 151, N-(6-(1,5-dimehtyl-6-oxo-1,6-dihydropyridin-3-yl)-2-(2,2,2-trifluoroethoxy)pyrimidin-4-yl)ethanesulfonamide] the value was less than 500 nM; for `Cc1cc(-c2cc(NS(=O)(=O)C(C)C)nc(OCC(C)C)n2)cn(C)c1=O` [Example 152, N-(6-(1,5-dimethyl-6-oxo-1,6-dihydropyridin-3-yl)-2-isobutoxypyrimidin-4-yl)propane-2-sulfonamide], less than 500 nM; for `CCS(=O)(=O)Nc1nc(Oc2c(C)cccc2C)nc(-c2cc(C)c(=O)n(C)c2)n1` [Example 153, Ethanesulfonic acid [4-(1,5-dimethyl-6-oxo-1,6-dihydro-pyridin-3-yl)-6-(2,6-dimethyl-phenoxy)-[1,3,5]triazin-2-yl]-amide], less than 500 nM.
Compound `CCCS(=O)(=O)Nc1nc(Oc2c(C)cccc2C)nc(-c2cc(C)c(=O)n(C)c2)n1` [Example 154, Propane-1-sulfonic acid [4-(1,5-dimethyl-6-oxo-1,6-dihydro-pyridin-3-yl)-6-(2,6-dimethyl-phenoxy)-[1,3,5]triazin-2-yl]-amide] registered an IC50 of less than 500 nM.
The compound `Cc1cccc(C)c1Oc1nc(NS(=O)(=O)C(C)C)nc(-c2cc(C)c(=O)n(C)c2)n1` [Example 155, Propane-2-sulfonic acid [4-(1,5-dimethyl-6-oxo-1,6-dihydro-pyridin-3-yl)-6-(2,6-dimethyl-phenoxy)-[1,3,5]triazin-2-yl]-amide] showed an IC50 of less than 500 nM.
Compound `CCCS(=O)(=O)Nc1cc(-c2cc(C)c(=O)n(C)c2)nc(-c2ccccc2)n1` [Example 156, N-(6-(1,5-dimethyl-6-oxo-1,6-dihydropyridin-3-yl)-2-phenylpyrimidin-4-yl)propane-1-sulfonamide] had an IC50 of 500 to 5000 nM.
On to `CCCCS(=O)(=O)Nc1cc(-c2c[nH]c(=O)c(C)c2)nc(Oc2c(C)cccc2Cl)n1` [Example 157, Butane-1-sulfonic acid [2-(2-chloro-6-methyl-phenoxy)-6-(5-methyl-6-oxo-1,6-dihydro-pyridin-3-yl)-pyrimidin-4-yl]-amide], for which the IC50 is less than 500 nM.
On to `Cc1cccc(Cl)c1Oc1nc(NS(=O)(=O)C(C)C)cc(-c2c[nH]c(=O)c(C)c2)n1` [Example 158, Propane-2-sulfonic acid [2-(2-chloro-6-methyl-phenoxy)-6-(5-methyl-6-oxo-1,6-dihydro-pyridin-3-yl)-pyrimidin-4-yl]-amide], for which the IC50 was less than 500 nM.
In the case of `CCS(=O)(=O)Nc1nc(Oc2c(C)cccc2F)nc(-c2cc(C)c(=O)n(C)c2)c1C` [Example 159, Ethane-2-sulfonic acid [6-(1,5-dimethyl-6-oxo-1,6-dihydro-pyridin-3-yl)-2-(2-fluoro-6-methyl-phenoxy)-5-methyl-pyrimidin-4-yl]-amide], the IC50 is less than 500 nM.
In turn, `CCS(=O)(=O)Nc1nc(Oc2c(C)cccc2C)nc(-c2cc(C)c(=O)n(C)c2)c1C` [Example 160, Ethanesulfonic acid [6-(1,5-dimethyl-6-oxo-1,6-dihydro-pyridin-3-yl)-2-(2,6-dimethyl-phenoxy)-5-methyl-pyrimidin-4-yl]-amide] yielded an IC50 of less than 500 nM.
Turning to `CCCS(=O)(=O)Nc1nc(Oc2c(C)cccc2F)nc(-c2cc(C)c(=O)n(C)c2)c1C` [Example 161, Propane-1-sulfonic acid [6-(1,5-dimethyl-6-oxo-1,6-dihydro-pyridin-3-yl)-2-(2-fluoro-6-methyl-phenoxy)-5-methyl-pyrimidin-4-yl]-amide], the IC50 was less than 500 nM.
On to `Cc1cccc(F)c1Oc1nc(NS(=O)(=O)C(C)C)c(C)c(-c2cc(C)c(=O)n(C)c2)n1` [Example 162, Propane-2-sulfonic acid [6-(1,5-dimethyl-6-oxo-1,6-dihydro-pyridin-3-yl)-2-(2-fluoro-6-methyl-phenoxy)-5-methyl-pyrimidin-4-yl]-amide], for which the IC50 was less than 500 nM.
Compound `Cc1cccc(C)c1Oc1nc(NS(=O)(=O)C(C)C)c(C)c(-c2cc(C)c(=O)n(C)c2)n1` [Example 163, Propane-2-sulfonic acid [6-(1,5-dimethyl-6-oxo-1,6-dihydro-pyridin-3-yl)-2-(2,6-dimethyl-phenoxy)-5-methyl-pyrimidin-4-yl]-amide] yielded an IC50 of less than 500 nM.
`CCCS(=O)(=O)Nc1nc(Oc2c(C)cccc2C)nc(-c2cc(C)c(=O)n(C)c2)c1C` [Example 164, Propane-1-sulfonic acid [6-(1,5-dimethyl-6-oxo-1,6-dihydro-pyridin-3-yl)-2-(2,6-dimethyl-phenoxy)-5-methyl-pyrimidin-4-yl]-amide] registered an IC50 of less than 500 nM.
`Cc1c(NS(=O)(=O)C(C)C)nc(Oc2ccc(F)cc2F)nc1-c1cc(C)c(=O)n(C)c1` [Example 165, Propane-2-sulfonic acid [2-(2,4-difluoro-phenoxy)-6-(1,5-dimethyl-6-oxo-1,6-dihydro-pyridin-3-yl)-5-methyl-pyrimidin-4-yl]-amide] registered an IC50 of less than 500 nM.
`CCC(F)(F)S(=O)(=O)Nc1cc(-c2ccc(=O)n(C)c2)nc(Oc2c(C)cccc2F)n1` [Example 166, 1,1-Difluoro-propane-1-sulfonic acid [2-(2-fluoro-6-methyl-phenoxy)-6-(1-methyl-6-oxo-1,6-dihydro-pyridin-3-yl)-pyrimidin-4-yl]-amide] gave an IC50 of less than 500 nM.
The compound `CCC(F)(F)S(=O)(=O)Nc1cc(-c2cc(C)c(=O)n(C)c2)nc(Oc2c(C)cccc2F)n1` [Example 167, 1,1-Difluoro-propane-1-sulfonic acid [6-(1,5-dimethyl-6-oxo-1,6-dihydro-pyridin-3-yl)-2-(2-fluoro-6-methyl-phenoxy)-pyrimidin-4-yl]-amide] returned a 50% inhibitory concentration (IC50) of less than 500 nM.
For `CCC(F)S(=O)(=O)Nc1cc(-c2ccc(=O)n(C)c2)nc(Oc2c(C)cccc2F)n1` (stereo not drawn) [Example 168, 1-Fluoro-propane-1-sulfonic acid [2-(2-fluoro-6-methyl-phenoxy)-6-(1-methyl-6-oxo-1,6-dihydro-pyridin-3-yl)-pyrimidin-4-yl]-amide] the value was less than 500 nM.
With `CCC(F)S(=O)(=O)Nc1cc(-c2cc(C)c(=O)n(C)c2)nc(Oc2c(C)cccc2F)n1` (stereo not drawn) [Example 169, 1-Fluoro-propane-1-sulfonic acid [6-(1,5-dimethyl-6-oxo-1,6-dihydro-pyridin-3-yl)-2-(2-fluoro-6-methyl-phenoxy)-pyrimidin-4-yl]-amide], the 50% inhibitory concentration (IC50) is less than 500 nM.
Turning to `CCC(F)(F)S(=O)(=O)Nc1cc(-c2ccc(=O)n(C)c2)nc(Oc2c(C)cccc2Cl)n1` [Example 170, 1,1-Difluoro-propane-1-sulfonic acid [2-(2-chloro-6-methyl-phenoxy)-6-(1-methyl-6-oxo-1,6-dihydro-pyridin-3-yl)-pyrimidin-4-yl]-amide], the IC50 was less than 500 nM.
In turn, `CCS(=O)(=O)Nc1nc(Oc2c(C)cccc2F)nc(-c2cc(C)c(=O)n(C)c2)n1` [Example 171, Ethanesulfonic acid [4-(1,5-dimethyl-6-oxo-1,6-dihydro-pyridin-3-yl)-6-(2-fluoro-6-methyl-phenoxy)-[1,3,5]triazin-2-yl]-amide] came in with an IC50 of less than 500 nM.
In turn, `Cc1cccc(F)c1Oc1nc(NS(=O)(=O)C(C)C)nc(-c2cc(C)c(=O)n(C)c2)n1` [Example 172, Propane-2-sulfonic acid [4-(1,5-dimethyl-6-oxo-1,6-dihydro-pyridin-3-yl)-6-(2-fluoro-6-methyl-phenoxy)-[1,3,5]triazin-2-yl]-amide] showed an IC50 of less than 500 nM.
